# Structures can show the parent of a compound that is named as a salt. Active and inactive are the calls of the source.
# Key:
# [1] = target: Heat shock protein HSP 90-alpha (Homo sapiens, UniProt P07900); format: functional, organism-based
# Fatty acid synthase [2] = target: T1, Fatty acid synthase (Homo sapiens, UniProt P49327); experiment: FAS thioesterase domain inhibitors, dose response, biochemical, kinetic fluorescence intensity (AID 624326); format: functional;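 further: rate of fluorescence rise from hydrolysis of a fluorogenic O-methyl fluorescein ester substrate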
# T1 sequence (P49327 whole entry, the tested form may be a part): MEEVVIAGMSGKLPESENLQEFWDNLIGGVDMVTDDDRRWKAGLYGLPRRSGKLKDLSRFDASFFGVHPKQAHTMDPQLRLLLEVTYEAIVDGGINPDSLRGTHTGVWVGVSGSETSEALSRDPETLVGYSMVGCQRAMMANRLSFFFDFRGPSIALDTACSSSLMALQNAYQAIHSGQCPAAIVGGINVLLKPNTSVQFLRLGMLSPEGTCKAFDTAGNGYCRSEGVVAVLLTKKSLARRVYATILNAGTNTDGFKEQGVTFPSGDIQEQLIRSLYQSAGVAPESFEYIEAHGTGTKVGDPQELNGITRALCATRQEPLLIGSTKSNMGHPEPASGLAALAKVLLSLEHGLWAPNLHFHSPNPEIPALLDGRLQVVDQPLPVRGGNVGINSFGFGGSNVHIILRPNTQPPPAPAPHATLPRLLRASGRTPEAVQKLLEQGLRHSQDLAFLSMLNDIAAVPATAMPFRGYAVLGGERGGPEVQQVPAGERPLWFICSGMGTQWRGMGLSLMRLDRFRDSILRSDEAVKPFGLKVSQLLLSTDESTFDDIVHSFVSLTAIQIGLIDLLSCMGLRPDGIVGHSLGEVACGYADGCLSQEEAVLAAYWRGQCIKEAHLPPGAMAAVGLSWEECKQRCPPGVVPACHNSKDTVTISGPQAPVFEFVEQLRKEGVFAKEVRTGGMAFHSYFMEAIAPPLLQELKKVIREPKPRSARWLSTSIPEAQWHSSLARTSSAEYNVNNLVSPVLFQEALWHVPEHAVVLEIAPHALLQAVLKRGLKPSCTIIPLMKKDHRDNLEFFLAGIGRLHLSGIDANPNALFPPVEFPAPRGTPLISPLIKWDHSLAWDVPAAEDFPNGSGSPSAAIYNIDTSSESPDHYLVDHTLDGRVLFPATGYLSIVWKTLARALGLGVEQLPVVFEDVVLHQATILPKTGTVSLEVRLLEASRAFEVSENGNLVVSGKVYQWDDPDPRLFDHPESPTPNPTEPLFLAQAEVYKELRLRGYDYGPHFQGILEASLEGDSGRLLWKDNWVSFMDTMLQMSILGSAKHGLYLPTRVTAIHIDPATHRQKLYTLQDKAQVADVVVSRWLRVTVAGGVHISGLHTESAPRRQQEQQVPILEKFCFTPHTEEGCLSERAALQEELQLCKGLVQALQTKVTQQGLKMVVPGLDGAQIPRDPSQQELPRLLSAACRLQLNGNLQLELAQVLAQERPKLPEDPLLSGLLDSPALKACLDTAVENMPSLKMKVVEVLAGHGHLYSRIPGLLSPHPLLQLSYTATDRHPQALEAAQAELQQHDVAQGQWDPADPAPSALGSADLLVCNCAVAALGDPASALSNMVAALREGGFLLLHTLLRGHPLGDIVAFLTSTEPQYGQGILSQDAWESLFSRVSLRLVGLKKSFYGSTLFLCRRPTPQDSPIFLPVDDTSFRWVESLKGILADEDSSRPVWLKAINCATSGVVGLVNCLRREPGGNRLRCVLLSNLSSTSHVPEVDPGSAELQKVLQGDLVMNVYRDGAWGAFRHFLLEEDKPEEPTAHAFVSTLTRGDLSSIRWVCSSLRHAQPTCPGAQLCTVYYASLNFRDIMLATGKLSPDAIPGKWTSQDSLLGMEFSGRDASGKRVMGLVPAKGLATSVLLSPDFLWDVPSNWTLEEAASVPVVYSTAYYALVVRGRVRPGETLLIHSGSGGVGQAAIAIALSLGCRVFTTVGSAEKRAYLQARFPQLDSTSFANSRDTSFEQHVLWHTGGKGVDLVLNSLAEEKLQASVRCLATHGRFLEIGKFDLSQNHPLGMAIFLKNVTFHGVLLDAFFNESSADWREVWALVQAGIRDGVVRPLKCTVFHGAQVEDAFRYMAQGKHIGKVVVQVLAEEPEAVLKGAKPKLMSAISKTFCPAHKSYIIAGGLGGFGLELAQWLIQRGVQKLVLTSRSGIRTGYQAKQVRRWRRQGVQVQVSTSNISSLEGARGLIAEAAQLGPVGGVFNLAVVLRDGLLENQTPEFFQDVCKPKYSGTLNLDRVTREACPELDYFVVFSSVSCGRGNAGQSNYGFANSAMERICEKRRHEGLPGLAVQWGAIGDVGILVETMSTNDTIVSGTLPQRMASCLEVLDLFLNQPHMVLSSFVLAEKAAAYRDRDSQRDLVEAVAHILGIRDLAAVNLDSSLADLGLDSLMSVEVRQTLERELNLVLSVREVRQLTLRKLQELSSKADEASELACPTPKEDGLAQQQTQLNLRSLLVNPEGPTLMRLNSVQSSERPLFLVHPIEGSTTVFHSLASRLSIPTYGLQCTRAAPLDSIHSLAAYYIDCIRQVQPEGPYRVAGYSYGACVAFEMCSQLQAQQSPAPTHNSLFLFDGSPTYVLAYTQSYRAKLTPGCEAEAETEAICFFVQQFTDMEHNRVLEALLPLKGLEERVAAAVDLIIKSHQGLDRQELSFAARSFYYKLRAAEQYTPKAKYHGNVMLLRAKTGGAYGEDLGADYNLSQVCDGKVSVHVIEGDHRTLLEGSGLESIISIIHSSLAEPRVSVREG
# Beta-galactosidase = Beta-galactosidase (Escherichia coli, UniProt Q8VNN2); experiment: beta-galactosidase enzyme inhibitors and activators, dose response, artefact control for CCR6 antagonist project, biochemical, E. coli enzyme, set 3 (AID 504712); format: functional
# Chain of Beta-galactosidase (Q8VNN2 whole entry, the tested form may be a part): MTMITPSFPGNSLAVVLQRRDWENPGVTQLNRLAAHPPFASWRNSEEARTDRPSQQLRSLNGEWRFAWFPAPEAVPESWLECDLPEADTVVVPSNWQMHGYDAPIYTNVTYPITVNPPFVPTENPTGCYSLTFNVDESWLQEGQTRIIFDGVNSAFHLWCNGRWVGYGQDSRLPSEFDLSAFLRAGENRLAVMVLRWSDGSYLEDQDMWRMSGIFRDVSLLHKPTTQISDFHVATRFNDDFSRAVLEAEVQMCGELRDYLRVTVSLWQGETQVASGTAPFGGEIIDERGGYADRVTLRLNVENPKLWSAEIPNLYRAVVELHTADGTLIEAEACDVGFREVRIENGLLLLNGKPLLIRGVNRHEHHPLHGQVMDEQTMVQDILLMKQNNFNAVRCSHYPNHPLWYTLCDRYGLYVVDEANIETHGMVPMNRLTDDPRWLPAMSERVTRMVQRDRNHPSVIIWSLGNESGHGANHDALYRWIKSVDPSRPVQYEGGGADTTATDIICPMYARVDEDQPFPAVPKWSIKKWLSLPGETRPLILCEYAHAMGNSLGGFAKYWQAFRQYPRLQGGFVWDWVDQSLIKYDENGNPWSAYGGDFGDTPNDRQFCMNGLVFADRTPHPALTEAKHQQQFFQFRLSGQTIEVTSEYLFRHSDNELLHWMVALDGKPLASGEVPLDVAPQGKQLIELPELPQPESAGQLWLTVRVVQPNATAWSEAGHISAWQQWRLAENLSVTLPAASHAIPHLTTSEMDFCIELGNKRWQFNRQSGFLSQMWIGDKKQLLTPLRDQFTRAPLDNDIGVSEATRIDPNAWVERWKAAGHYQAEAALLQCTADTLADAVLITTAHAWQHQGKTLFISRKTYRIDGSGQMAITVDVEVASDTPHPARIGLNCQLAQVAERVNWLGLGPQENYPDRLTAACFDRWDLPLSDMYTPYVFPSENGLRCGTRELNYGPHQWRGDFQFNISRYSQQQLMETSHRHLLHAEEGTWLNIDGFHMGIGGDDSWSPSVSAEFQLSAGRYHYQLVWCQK
# Fatty acid synthase [3] = target: T1, Fatty acid synthase; experiment: FAS thioesterase domain inhibitors, dose response, biochemical, endpoint fluorescence intensity, uHTS hits (AID 624327); format: functional;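 further: fluorescence from hydrolysis of an O-methyl fluorescein acyl ester substrate by the enzyme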
# [4] = cytotoxicity in HEK-293T cells, dose response, cytotoxicity control for BCR NF-kB inhibitor project, luminescence, B-cell screen hits (AID 489021); format: functional, cell-based;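 further: HEK-293T cells carrying an NF-kB luciferase reporter; cells exposed to compound for about 14 hours before viability readout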
# [5] = target: T2, Neuropeptides B/W receptor type 1 (Homo sapiens, UniProt P48145); experiment: Fluorescence-based dose response cell-based high throughput screening assay to identify antagonists of the G-protein coupled receptor 7 (GPR7). [Related pubchem assays: 1952 (Screening assay (GPR7 antagonists).), 1880 (Summary AID.)]; format: functional
# T2 sequence (P48145 whole entry): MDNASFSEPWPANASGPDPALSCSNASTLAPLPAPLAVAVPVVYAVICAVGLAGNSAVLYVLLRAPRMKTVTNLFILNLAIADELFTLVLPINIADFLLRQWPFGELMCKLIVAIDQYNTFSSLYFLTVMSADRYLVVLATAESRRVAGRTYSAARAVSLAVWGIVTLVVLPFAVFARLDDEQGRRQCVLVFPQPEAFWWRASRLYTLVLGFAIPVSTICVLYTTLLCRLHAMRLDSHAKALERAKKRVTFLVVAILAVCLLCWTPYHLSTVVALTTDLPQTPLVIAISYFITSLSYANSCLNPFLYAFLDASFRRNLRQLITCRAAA
# [6] = target: Melanin-concentrating hormone receptor 1 (Homo sapiens, UniProt Q99705); experiment: Fluorescence-based counterscreen for antagonists of the G-protein coupled receptor 7 (GPR7): cell-based high throughput dose response assay to identify antagonists of the melanin-concentrating hormone receptor 1 (MCHR1).; format: functional
# Chain of Melanin-concentrating hormone receptor 1 (Q99705 whole entry): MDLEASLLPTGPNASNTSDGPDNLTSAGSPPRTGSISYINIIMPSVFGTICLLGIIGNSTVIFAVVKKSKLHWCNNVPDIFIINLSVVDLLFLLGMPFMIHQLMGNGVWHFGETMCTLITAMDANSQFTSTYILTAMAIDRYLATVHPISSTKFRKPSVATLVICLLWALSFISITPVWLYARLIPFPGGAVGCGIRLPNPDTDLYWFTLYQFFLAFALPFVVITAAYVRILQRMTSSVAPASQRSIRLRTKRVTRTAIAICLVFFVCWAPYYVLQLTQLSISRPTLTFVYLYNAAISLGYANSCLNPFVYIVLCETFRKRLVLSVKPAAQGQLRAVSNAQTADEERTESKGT
# Aspartyl aminopeptidase = target: T3, Aspartyl aminopeptidase (Plasmodium falciparum 3D7, UniProt Q8I2J3)
# T3 sequence (Q8I2J3 whole entry): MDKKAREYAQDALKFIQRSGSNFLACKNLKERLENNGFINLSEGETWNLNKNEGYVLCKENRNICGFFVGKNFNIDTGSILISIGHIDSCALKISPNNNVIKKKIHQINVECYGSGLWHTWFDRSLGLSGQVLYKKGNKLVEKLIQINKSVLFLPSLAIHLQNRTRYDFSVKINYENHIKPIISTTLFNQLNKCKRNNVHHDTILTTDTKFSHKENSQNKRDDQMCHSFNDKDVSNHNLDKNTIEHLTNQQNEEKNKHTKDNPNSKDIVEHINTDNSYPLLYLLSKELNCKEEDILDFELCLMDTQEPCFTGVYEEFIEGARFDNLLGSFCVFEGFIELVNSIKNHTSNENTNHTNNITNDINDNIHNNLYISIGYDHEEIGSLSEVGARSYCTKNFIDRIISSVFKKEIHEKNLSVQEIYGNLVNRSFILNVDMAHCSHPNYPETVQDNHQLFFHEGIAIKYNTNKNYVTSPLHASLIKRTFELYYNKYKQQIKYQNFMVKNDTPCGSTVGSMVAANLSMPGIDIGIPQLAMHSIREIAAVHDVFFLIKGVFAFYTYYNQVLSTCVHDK
# Procathepsin L = Procathepsin L (Homo sapiens, UniProt P07711)
# Chain of Procathepsin L (P07711 whole entry): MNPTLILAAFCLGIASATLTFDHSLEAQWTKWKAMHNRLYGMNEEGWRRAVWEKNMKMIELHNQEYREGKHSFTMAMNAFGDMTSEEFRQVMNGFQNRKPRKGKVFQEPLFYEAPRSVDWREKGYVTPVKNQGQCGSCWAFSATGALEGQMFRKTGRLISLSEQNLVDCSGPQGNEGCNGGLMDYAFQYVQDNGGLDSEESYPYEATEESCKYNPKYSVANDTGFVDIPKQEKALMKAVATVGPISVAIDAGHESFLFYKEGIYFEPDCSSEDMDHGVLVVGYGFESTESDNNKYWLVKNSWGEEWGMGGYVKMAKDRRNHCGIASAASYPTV
# [7] = target: Induced myeloid leukemia cell differentiation protein Mcl-1 (Homo sapiens, UniProt Q07820); format: functional
# Chain of Induced myeloid leukemia cell differentiation protein Mcl-1 (Q07820 whole entry): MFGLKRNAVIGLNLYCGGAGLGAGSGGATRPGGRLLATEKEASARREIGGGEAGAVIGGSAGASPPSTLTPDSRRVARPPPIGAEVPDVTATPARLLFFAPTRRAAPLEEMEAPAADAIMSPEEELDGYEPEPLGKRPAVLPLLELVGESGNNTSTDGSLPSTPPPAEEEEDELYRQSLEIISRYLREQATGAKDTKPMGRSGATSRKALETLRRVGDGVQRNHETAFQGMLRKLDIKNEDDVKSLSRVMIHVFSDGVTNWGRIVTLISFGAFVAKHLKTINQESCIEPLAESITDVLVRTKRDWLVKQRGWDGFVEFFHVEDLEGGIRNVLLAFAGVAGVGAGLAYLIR
# BJ = experiment: cytotoxicity toward Ras-transformed BJeLR fibroblasts, dose response, cell-based, alamar blue fluorescence, cherrypicked samples (AID 2631); format: functional; settings: Homo sapiens;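 further: confirmatory dose-response assay in RAS-dependent BJ fibroblasts engineered with TERT, LT and ST, with cytotoxicity read by fluorescence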
# HeLa = experiment: HeLa cell cytotoxicity, dose response, cytotoxicity control, 24 h, cherry-picked samples (AID 504726); format: functional, cell-based; settings: Homo sapiens;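 further: potency for cytotoxicity as loss of luminescence signal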
# [8] = target: G-protein coupled receptor 55 (Homo sapiens, UniProt Q9Y2T6); experiment: GPR55 antagonists blocking LPI-driven arrestin recruitment, primary screen, imaging, U2OS, beta-arrestin-GFP, LPI agonist (AID 2013); format: functional;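 further: antagonist potency measured as reduced agonist-driven arrestin aggregation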
# Chain of G-protein coupled receptor 55 (Q9Y2T6 whole entry): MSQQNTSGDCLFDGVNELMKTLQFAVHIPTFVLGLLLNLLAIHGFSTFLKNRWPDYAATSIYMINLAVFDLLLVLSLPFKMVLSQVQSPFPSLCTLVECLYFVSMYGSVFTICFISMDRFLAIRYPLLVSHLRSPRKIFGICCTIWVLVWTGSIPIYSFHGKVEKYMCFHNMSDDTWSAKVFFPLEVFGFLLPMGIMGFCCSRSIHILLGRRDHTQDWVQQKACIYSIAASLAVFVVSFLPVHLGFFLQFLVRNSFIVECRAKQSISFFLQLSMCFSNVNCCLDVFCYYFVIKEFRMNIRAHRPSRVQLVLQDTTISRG
# [9] = growth suppression of PTEN-null colon cells, dose response, cell-based, HCT116 PTEN knockout (AID 1047); format: functional;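 further: HCT116 colon tumor cells with PTEN knocked out; cells exposed to compound for 60 hours before readout; potency for loss of cell viability measured by luminescence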
# [10] = growth suppression of beta-catenin-knockout colon cells, dose response, cell-based, HCT116, human colon tumor (AID 1045); format: functional;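 further: HCT116 colon tumor cells with beta catenin knocked out; cells exposed to compound for 60 hours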
# Large T antigen = Large T antigen (Simian virus 40, UniProt P03070); format: functional, Betapolyomavirus macacae;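 further: Confirmatory-stage PubChem screen for compounds that inhibit SV40 T antigen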
# H9c2 = experiment: cells; format: functional, cell-based; settings: Rattus norvegicus, H9c2, Myocardium;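 further: confirmatory concentration-response retest of ultra-high-throughput screening hits for modulation of myocardial damage; cell death induced by hydrogen peroxide oxidative stress; compound pretreatment for 60 min then peroxide exposure for 2 h; potency is for protecting the cells against peroxide damage rather than for killing them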
# [11] = target: T4, Nucleotide-binding oligomerization domain-containing protein 1 (Homo sapiens, UniProt Q9Y239); experiment: NOD1 signaling inhibitors, SAR follow-up, revised (AID 2333); format: functional
# T4 sequence (Q9Y239 whole entry): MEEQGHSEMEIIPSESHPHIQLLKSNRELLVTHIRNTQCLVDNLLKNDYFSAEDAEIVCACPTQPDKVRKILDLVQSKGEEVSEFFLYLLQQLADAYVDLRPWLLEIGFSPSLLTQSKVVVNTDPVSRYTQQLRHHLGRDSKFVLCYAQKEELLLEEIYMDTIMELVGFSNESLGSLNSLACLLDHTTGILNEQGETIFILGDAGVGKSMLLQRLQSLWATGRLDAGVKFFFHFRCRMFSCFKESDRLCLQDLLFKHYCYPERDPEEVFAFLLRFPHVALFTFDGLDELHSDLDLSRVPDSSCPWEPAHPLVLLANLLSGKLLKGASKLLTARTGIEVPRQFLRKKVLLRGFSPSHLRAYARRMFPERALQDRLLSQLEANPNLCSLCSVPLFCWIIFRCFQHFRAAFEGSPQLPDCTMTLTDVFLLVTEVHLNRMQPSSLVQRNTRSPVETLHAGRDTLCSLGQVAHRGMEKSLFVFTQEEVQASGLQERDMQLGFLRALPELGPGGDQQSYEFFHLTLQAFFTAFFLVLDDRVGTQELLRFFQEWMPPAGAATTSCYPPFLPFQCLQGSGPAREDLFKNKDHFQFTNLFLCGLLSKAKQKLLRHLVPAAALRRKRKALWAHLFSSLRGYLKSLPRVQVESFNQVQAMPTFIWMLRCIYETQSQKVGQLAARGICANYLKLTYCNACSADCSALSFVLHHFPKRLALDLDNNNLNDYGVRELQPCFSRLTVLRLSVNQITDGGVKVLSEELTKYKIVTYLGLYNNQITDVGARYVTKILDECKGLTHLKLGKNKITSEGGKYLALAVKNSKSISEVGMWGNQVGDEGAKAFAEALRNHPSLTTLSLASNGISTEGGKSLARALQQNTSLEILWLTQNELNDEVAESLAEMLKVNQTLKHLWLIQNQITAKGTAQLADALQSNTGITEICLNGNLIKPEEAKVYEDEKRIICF
# Tumor necrosis factor = Tumor necrosis factor (Homo sapiens, UniProt P01375); experiment: TNFa-triggered NF-kB activation inhibitors, SAR follow-up, cell-based, revised (AID 2337); format: functional
# Interleukin-8 [12] = target: T5, Interleukin-8 (Homo sapiens, UniProt P10145); experiment: SAR analysis of GM-Tri-DAP induced IL-8 secretion in MCF-7/NOD1 cells - Set 2. [Related pubchem assays (depositor defined):AID1575, AID1578, AID2333]; format: functional, cell-based
# T5 sequence (P10145 whole entry): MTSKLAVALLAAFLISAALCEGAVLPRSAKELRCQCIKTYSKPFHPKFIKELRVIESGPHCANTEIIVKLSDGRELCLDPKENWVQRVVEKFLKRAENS
# HEK293 = experiment: cells; settings: Homo sapiens;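 further: cells exposed to compound for 14 hours overnight before viability readout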
# Interleukin-8 [13] = target: T5, Interleukin-8; experiment: SAR analysis of Tumor necrosis factor alpha (TNF-alpha) induced IL-8 secretion in MCF-7/NOD1 cells - Set 2. [Related pubchem assays (depositor defined):AID1575, AID2250, AID2260]; format: functional, cell-based
# Hexokinase = target: T6, Hexokinase (Trypanosoma brucei, UniProt Q38C41); experiment: Confirmation assay for inhibitors of Trypanosoma brucei hexokinase 1-Analogue-first series. [Related pubchem assays (depositor defined):AID1430, AID1632, AID2516, AID2560, AID2579, AID2600, AID449725, AID492951]; format: functional
# T6 sequence (Q38C41 whole entry): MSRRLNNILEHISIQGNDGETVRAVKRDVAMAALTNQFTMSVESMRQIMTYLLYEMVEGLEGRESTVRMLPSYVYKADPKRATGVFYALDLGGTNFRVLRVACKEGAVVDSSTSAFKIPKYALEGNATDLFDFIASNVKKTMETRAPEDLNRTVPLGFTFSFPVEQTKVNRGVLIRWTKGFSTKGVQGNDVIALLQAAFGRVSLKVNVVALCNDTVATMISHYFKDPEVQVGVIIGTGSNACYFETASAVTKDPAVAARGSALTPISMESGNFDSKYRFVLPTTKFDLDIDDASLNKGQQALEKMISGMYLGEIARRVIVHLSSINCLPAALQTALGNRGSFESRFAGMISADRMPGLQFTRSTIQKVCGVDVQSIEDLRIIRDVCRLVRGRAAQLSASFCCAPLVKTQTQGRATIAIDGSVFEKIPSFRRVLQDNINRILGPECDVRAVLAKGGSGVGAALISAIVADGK
# Streptococcus = experiment: Group A Streptococcus viability loss, dose response, counter-screen for streptokinase expression inhibitor project, luminescence, BacTiterGlo (AID 1915); format: functional, organism-based;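 further: potency for reduction of bacterial viability or growth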
# [14] = system: Streptococcus sp. 'group A'; experiment: growth inhibition of control SK(-) GAS strain, dose response, counter-screen for streptokinase expression inhibitor project, luminescence, kanamycin, BacTiterGlo, confirmation (AID 1900); format: functional, organism-based
# Streptokinase A = target: T7, Streptokinase A (Streptococcus pyogenes serotype M1, UniProt P10520); experiment: S. pyogenes streptokinase expression inhibitors, potency, dose response, plasminogen activation absorbance, OD405 (AID 1914); format: functional, Streptococcus pyogenes M1 GAS;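 further: secreted streptokinase activity via plasminogen activation per viability signal from cell pellet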
# T7 sequence (P10520 whole entry): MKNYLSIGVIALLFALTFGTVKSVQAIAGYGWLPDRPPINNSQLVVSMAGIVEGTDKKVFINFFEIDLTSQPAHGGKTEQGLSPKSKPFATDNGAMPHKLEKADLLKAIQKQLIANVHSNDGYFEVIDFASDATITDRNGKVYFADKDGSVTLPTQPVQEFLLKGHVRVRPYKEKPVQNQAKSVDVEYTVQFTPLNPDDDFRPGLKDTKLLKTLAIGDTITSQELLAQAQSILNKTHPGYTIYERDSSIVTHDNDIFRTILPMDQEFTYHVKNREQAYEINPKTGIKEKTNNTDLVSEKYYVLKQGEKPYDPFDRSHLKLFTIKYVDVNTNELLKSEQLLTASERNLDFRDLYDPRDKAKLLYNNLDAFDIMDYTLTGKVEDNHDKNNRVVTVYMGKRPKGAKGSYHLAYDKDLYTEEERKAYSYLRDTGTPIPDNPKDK
# [15] = target: FAD-linked sulfhydryl oxidase ALR (Homo sapiens, UniProt P55789); experiment: inhibitors of human ALR sulfhydryl oxidase, dose response, biochemical, H2O2 detection, luminescence, cherry-pick (AID 493248)
smiles,measurement,setting,value
N#C/C(=C\c1cccc([N+](=O)[O-])c1)C(=O)NCc1ccc(Cl)cc1,AC50,[1],1.93 µM (active)
same,IC50,Fatty acid synthase [2],4.11 µM (active)
same,IC50,Beta-galactosidase,> 66.6 µM (inactive)
same,IC50,Fatty acid synthase [3],4.48 µM (active)
COc1ccc(N(CC(=O)N2CCN(c3ccc(Cl)cc3)CC2)S(=O)(=O)c2c(C)n[nH]c2C)cc1,IC50,[4],> 80 µM (inactive)
CCOC(=O)COc1c(Cl)cc(C2NC(S)=NC(c3ccccc3)=C2C(C)=O)cc1OC (stereo not given),IC50,[5],> 43.8 µM (not active)
same,IC50,[6],> 43.8 µM (not active)
COc1ccc(C2=CC(=O)C=CC2=O)cc1,IC50,Aspartyl aminopeptidase,6.85 µM (active)
same,IC50,Procathepsin L,> 59.6 µM (not active)
same,IC50,[7],5.43 µM (active)
same,EC50,BJ,> 133 µM (inactive)
Cc1noc(C)c1CSCC(=O)Nc1nc2c(F)cc(F)cc2s1,AC50,HeLa,> 350 µM (inactive)
O=C(c1cccc(Oc2ccc([N+](=O)[O-])cc2Cl)c1)N1CCCCC1,IC50,[8],5.09 µM (active)
Cc1nn(-c2nc3ccccc3[nH]2)c(N)c1-c1ccccc1,IC50,Beta-galactosidase,> 66.6 µM (inactive)
Cc1csc(NC(=O)NC2(C(F)(F)F)Oc3ccccc3O2)n1,EC50,[9],24.8 µM (active)
same,IC50,Aspartyl aminopeptidase,2.02 µM (active)
same,EC50,[10],21.9 µM (active)
same,IC50,Procathepsin L,> 59.6 µM (not active)
same,IC50,Large T antigen,13.3 µM (active)
COc1cc(NC(=O)c2ccco2)c(OC)cc1NC(=O)c1cc(OC)c(OC)c(OC)c1,IC50,[4],41.3 µM (inactive)
same,IC50,H9c2,14.3 µM (active)
Cc1ccc(S(=O)(=O)n2c(=S)[nH]c3cc(C)ccc32)cc1,IC50,[11],> 20 µM (inactive)
same,IC50,Tumor necrosis factor,> 20 µM (inactive)
same,IC50,Interleukin-8 [12],> 25 µM (inactive)
same,IC50,HEK293,> 20 µM (inactive)
same,IC50,Interleukin-8 [13],> 25 µM (inactive)
Fc1ccc(CSc2ncnc3scc(-c4ccccc4)c23)cc1,IC50,[8],2.16 µM (active)
CCC(C)(C(=O)NC1CCCCC1)N(Cc1ccco1)C(=O)c1ccc2c(c1)OCO2 (stereo not given),IC50,[5],> 43.8 µM (not active)
same,IC50,[6],> 43.8 µM (not active)
Cc1csc(NC(=O)/C=C/c2ccc3c(c2)OCO3)n1,IC50,[4],> 80 µM (inactive)
O=C(Cn1sc2ccccc2c1=O)Nc1cccc(Br)c1,IC50,Hexokinase,> 25 µM (inactive)
O=C(Cn1sc2ccccc2c1=O)Nc1ccccc1Cl,IC50,Hexokinase,4.16 µM (active)
COc1ccc(NC(=O)Nc2ccccc2C(=O)O)cc1,IC50,Hexokinase,> 25 µM (inactive)
Cc1cccc(/C=N/NC(=O)c2ccccc2OCc2cccc(Br)c2)n1,EC50,Streptococcus,21.5 µM (active)
same,IC50,Beta-galactosidase,> 66.6 µM (inactive)
same,EC50,[14],11 µM (active)
same,EC50,Streptokinase A,16.1 µM (active)
NCCc1ccc(O)c(O)c1 [DOPAMINE HYDROCHLORIDE],AC50,[15],1.42 µM (active)
same,IC50,Aspartyl aminopeptidase,1.98 µM (active)
same,IC50,Procathepsin L,> 59.6 µM (not active)

# Reference: ChEMBL document CHEMBL1201862, “PubChem BioAssay data set” (2004)
